Test results as given in patent publication US20220133669A1, “PHARMACEUTICAL COMPOSITIONS COMPRISING 15-HETRE AND METHODS OF USE THEREOF” (DS Biopharma Limited, priority 2020, published 2022).

Key:
[1] = Tissue distribution following oral administration of 15-HETrE; format: in vivo, rats; conditions: 500 mg/kg p.o. once daily for 7 days; tissues taken 24 hours after final dose
Experimental: The objective of this study was to examine distribution of orally administered 15-HETrE. Male CRL:CD rats were obtained from Charles River Laboratories. Upon receipt, animals were allowed to acclimatize for 5 days prior to start of testing, housed under a 12 h light/dark cycle, and provided a pellet diet (RM-1) and water ad libitum. Animals were dosed with 15-HETrE or vehicle (0.5% HPMC in ASTM Type 1 water) p.o. once daily for 7 days. Animals were monitored at 0.25, 0.5, and 1 hour post dose. During the treatment period, individual body weight was measured daily as well as clinical signs of behavior and survival.
24 hours after the final p.o. dose, each animal was killed by anaesthetic overdose with an intraperitoneal injection of pentobarbitone. A blood sample was collected from the descending vena cava. Lungs, heart, liver, kidneys, spleen, colon, and an area of shaved skin were harvested from each animal, rinsed in PBS, dabbed dry, weighed, and snap-frozen by immersion in liquid nitrogen. All tissue samples were stored frozen at −80° C.

human islet microtissue [2] = experiment: Cytotoxicity pretest: ATP content (CellTiter-Glo cell viability) in islet microtissues; format: cell-based; conditions: after 7 days of treatment
Experimental: (§1) From Days 0-7, a human islet microtissue was established. On Day 7, 15-HETrE treatment commenced. From Days 9-12, the culture media was renewed and the compound (15-HETrE) was re-dosed. On Day 14, an assessment on islet cell viability was performed—tissues were lysed to measure ATP content using Promega CellTiter-Glo luminescent cell viability assay. On Day 14, an assessment on islet cell function was also performed—conditioned media from the last 48 hours of the experiment was collected to test chronic insulin secretion. And lastly, on Day 14, insulin was quantified—following dilutions in Krebs-Ringer HEPES buffer, chronic insulin secretion was quantified using STELLUX Chemi Human Insulin ELISA assay.

human islet microtissue [3] = experiment: Cytotoxicity pretest: chronic insulin secretion (Human Insulin ELISA) of islet microtissues; format: cell-based; conditions: 300 μM; after 7 days of treatment
Experimental: as §1

human islet microtissue [4] = experiment: 15-HETrE efficacy: human islet microtissue function under glucotoxic conditions; format: cell-based
Experimental: (§2) The aim of the following study was to determine the effects of 15(S)-HETrE activity on diabetes. This aim was accomplished by (1) identifying a cytotoxic threshold of 15(S)-HETrE in islet microtissues and (2) testing the effects of 15(S)-HETrE on human islet microtissue function under conditions of glucotoxicity and cytokine stress.
(§3) From Days 0-13, an islet microtissue model was established and glucotoxicity pre-test performed. Day 14 marked the start of glucotoxicity assay and 12.5 μM, 25 μM and 50 μM 15(S)-HETrE treatment. From Days 16-19, the culture media was renewed, and the compound (15-HETrE) was re-dosed. Day 12 marked the start of the cytokine stress assay for the 12.5 μM, 25 μM and 50 μM 15(S)-HETrE treatment. On Day, 12 an intermediate assessment of the compound effects was also performed (e.g., Day 7 incubation in glucotoxic conditions). On Day 12, a renewal of the culture media and compound treatment was performed. On Days 23 and 26, a renewal of the culture media and compound treatment was also performed. Lastly, on Day 28, an assessment of the compound effects under glucotoxicity/cytokine stress at the end of 14- and 7-day incubation was performed.

human islet microtissue [5] = experiment: 15-HETrE efficacy: human islet microtissue under cytokine stress; format: cell-based; conditions: 50 μM
Experimental: as §2, §3

Compound | tissue distribution of 15-HETrE (heart, kidney, liver, spleen, lung, plasma, skin, colon) vs control animals [1] | ATP content (human islet microtissue [2]; 11.1 μM) | ATP content (human islet microtissue [2]; 300 μM) | chronic insulin secretion (human islet microtissue [3]) | fold stimulation of insulin secretion (human islet microtissue [4]; 25 μM, day 14) | ATP levels (human islet microtissue [4]; 50 μM) | chronic insulin secretion (human islet microtissue [4]; day 7) | stimulated insulin secretion (human islet microtissue [4]; day 7, 50 μM) | basal insulin secretion (human islet microtissue [4]; day 7, 12.5, 25 and 50 μM) | chronic insulin secretion (human islet microtissue [4]; day 14) | basal insulin secretion (human islet microtissue [4]; day 14, 12.5, 25 and 50 μM) | ATP content (human islet microtissue [5])
CCCCCC(O)/C=C/C=C\C/C=C\CCCCCCC(=O)O (stereo not drawn) [15-HETrE, 15-hydroxy-eicosa-8(Z),11(Z),13(E)-trienoic acid] | targeted all organs tested, including the skin | – | – | – | – | – | – | – | – | – | – | –
CCCCC[C@H](O)/C=C/C=C\C/C=C\CCCCCCC(=O)O [15(S)-HETrE] | – | significant increase | significant decrease | significant decrease | improved | significantly decreased | reduced | significant decrease | dose-dependent decrease | reduced | dose-dependent decrease | significant decrease
